According to patent US8389500B2, “Fused heterocyclic compounds as ion channel modulators” (Gilead Sciences, Inc., priority 2008, dated 2013):

Legend:
hERG potassium channel = molecular target: T1, hERG potassium channel (Homo sapiens, UniProt Q12809); test: hERG screening assay (PatchXpress patch clamp, CHO cells); format: cell-based; conditions: hERG in CHO cells, peak current at −50 mV; for hERG Patch Clamp hERG % blk 1 μm: 1 μm test compound; for hERG Patch Clamp hERG % blk 10 μm: 10 μm test compound
T1 construct: expressed in transfected cells; host or cells: CHO (Chinese Hamster Ovary)
T1 sequence (Q12809 whole entry): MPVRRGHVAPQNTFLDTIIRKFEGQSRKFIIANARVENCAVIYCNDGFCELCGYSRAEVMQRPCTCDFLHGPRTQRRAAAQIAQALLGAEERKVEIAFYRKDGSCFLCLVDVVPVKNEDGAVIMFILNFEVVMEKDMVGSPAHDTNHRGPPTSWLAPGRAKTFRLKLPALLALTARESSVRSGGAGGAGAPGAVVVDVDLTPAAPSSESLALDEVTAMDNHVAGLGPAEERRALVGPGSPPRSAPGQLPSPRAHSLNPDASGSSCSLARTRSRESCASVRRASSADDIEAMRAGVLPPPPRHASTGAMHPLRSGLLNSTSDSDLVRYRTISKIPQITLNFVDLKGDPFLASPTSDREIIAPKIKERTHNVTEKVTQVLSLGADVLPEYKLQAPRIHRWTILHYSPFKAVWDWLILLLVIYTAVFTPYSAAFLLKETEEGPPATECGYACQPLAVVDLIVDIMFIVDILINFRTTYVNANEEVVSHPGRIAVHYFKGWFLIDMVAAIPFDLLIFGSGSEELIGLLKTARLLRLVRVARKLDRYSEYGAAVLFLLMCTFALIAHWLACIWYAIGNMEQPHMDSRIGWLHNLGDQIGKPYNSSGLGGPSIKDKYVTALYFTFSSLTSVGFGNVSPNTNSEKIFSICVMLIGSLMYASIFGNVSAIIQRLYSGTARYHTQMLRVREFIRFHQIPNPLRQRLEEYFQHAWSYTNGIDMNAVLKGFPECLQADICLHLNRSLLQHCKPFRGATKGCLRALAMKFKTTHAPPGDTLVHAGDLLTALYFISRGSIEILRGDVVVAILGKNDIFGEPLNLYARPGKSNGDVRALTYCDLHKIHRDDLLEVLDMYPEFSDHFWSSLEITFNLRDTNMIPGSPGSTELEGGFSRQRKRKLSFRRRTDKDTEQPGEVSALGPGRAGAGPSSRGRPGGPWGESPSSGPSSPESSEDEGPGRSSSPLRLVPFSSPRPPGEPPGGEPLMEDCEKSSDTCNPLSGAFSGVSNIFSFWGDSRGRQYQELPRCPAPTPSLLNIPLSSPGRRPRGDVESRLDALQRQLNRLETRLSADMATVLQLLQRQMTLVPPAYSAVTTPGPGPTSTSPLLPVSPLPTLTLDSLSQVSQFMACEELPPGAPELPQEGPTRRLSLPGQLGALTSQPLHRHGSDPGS
Method: Compounds were screened to test their activity in blocking the hERG potassium channel. The hERG channel is heterologously expressed in a CHO (Chinese Hamster Ovary) cell line. Cells are maintained with standard tissue culture procedures and stable channel expression is maintained with 500 μg/ml G418 in the culture medium. Cells are harvested for testing on the PatchXpress automated patch clamp with Accumax (Innovative Cell Technologies, San Diego, Calif.) to isolate single cells.
The following solutions are used for electrophysiological recordings. The external solution contains: 2 mM CaCl2; 2 mM MgCl2; 4 mM KCl; 150 mM NaCl; 10 mM Glucose; 10 mM HEPES (pH 7.4 with 1M NaOH, osmolarity). The internal solution contains: 140 mM KCl, 10 mM MgCl2, 6 mM EGTA, 5 mM HEPES, 5 mM ATP (pH adjusted to 7.25 with KOH).
hERG channels are activated when the voltage is stepped to +20 mV from the −80 mV holding potential. During a 5 second step at +20 mV, the channels activate and then largely inactivate, so the currents are relatively small. Upon returning to −50 mV from +20 mV, hERG currents transiently become much larger as inactivation is rapidly removed and then the channel closes. The first step to −50 mV for 300 ms is used as a baseline for measuring the peak amplitude during the step to −50 mV after channel activation. The peak current at −50 mV is measured both under control conditions and after addition of compound.
All compounds are prepared as 10 mM DMSO stocks in glass vials. Stock solutions are mixed by vigorous vortexing and sonication for about 2 minutes at room temperature. For testing, compounds are diluted in glass vials using an intermediate dilution step in pure DMSO and then further diluted to working concentrations in external solution. Dilutions are prepared no longer than 20 minutes before use.
After achieving the whole-cell configuration, cells are monitored for 90 seconds to assess stability and washed with external solution for 66 seconds. The voltage protocol described above is then applied to the cells every 12 seconds and throughout the whole procedure. Only cells with stable recording parameters and meeting specified health criteria are allowed to enter the compound addition procedure.
External solution containing 0.1% DMSO (vehicle) is applied to the cells first to establish the control peak current amplitude. After allowing the current to stabilize for 3 to 5 minutes, 1 μM and then 10 μM test compounds are applied. Each compound concentration is added 4 times and cells are kept in test solution until the effect of the compound reaches steady state or for a maximum of 12 minutes. After addition of test compound, a positive control (1 μM Cisapride) is added and must block >95% of the current for the experiment to be considered valid. Washout in the external solution compartment is performed until the recovery of the current reaches steady state. Data are analyzed using DataXpress, Clampfit (Molecular Devices, Inc., Sunnyvale) and Origin 7 (Originlab Corp.)

[1] = molecular target: T2, wild-type human cardiac sodium channel, hNav1.5 (late sodium current) (Homo sapiens, UniProt Q14524); test: Late INa screening assay (PatchXpress whole cell patch clamp); format: cell-based; conditions: HEK293 hNav1.5, late INa generated with 10 μM Tefluthrin (some experiments 50 nM ATX II); for inhibition at 10 µM: 10 μM test compound, read-out: Late INa % blk (10 μM test cmpd); for inhibition at 1 µM: 1 μM test compound, read-out: Late INa % blk (1 μM test cmpd)
T2 construct: host or cells: HEK293
T2 sequence (Q14524 whole entry): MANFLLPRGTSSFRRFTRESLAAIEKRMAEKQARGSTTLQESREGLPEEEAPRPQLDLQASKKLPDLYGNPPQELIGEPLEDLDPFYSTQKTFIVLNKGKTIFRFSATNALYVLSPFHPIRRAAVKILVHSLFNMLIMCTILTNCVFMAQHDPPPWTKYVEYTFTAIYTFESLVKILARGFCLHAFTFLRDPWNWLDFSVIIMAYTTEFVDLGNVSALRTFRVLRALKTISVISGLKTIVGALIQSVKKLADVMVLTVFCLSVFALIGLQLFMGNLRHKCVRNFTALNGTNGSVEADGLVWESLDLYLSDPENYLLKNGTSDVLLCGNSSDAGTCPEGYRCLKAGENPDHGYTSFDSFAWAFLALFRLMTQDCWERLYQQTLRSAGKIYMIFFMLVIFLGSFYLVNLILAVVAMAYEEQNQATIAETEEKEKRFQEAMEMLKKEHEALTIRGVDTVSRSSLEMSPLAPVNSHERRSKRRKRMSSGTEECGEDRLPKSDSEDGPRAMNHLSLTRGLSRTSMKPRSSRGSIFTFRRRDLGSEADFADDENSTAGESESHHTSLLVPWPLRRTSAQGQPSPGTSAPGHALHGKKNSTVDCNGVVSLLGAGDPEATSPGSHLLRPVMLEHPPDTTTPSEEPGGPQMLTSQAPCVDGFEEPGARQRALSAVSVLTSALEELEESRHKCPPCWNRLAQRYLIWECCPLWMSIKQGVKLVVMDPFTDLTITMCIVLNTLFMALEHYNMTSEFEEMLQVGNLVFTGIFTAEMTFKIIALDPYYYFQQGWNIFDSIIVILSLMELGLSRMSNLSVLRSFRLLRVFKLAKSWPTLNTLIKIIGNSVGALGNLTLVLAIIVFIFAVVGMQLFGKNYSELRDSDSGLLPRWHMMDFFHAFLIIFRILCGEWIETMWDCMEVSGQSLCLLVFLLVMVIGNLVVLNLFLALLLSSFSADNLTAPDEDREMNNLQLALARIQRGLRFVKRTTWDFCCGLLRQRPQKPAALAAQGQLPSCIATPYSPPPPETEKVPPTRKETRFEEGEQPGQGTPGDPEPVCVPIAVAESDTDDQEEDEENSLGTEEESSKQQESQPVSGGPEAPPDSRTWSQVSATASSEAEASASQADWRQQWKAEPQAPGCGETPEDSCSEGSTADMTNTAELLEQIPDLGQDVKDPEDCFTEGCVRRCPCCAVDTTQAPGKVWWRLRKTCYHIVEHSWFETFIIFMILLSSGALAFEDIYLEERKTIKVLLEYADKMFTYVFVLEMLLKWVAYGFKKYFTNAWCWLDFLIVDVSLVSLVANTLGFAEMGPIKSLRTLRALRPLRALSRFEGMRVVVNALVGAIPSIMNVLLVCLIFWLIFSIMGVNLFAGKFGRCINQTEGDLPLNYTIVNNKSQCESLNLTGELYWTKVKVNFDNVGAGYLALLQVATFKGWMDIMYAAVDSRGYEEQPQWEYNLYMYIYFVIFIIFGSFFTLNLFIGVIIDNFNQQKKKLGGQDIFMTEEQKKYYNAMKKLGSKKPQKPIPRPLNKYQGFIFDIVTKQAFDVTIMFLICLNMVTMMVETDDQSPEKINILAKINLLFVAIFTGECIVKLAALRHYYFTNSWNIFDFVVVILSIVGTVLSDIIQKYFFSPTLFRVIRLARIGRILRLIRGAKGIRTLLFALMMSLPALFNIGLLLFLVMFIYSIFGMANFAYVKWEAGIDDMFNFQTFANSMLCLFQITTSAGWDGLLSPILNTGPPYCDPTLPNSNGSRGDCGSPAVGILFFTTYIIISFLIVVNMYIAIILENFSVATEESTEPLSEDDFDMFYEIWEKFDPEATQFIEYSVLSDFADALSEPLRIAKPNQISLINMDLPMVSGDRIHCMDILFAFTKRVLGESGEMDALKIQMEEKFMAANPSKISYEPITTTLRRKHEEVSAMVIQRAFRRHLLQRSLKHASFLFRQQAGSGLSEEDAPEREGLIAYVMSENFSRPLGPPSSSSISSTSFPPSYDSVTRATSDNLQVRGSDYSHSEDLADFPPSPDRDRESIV
Outline: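 Late sodium current block was assessed by automated whole cell patch clamp on a PatchXpress 7000A using HEK293 cells stably expressing wild-type human hNav1.5 without beta subunits. Late current was induced with 10 μM Tefluthrin or 50 nM ATX II. Channels were stepped from −120 mV to −20 mV for 250 ms at 0.1 Hz at 24-27° C. Current was normalized to 0Na baseline and expressed as percent block.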

| SMILES | hERG Patch Clamp hERG % blk 1 μm (hERG potassium channel) | hERG Patch Clamp hERG % blk 10 μm (hERG potassium channel) | inhibition at 10 µM [1] | inhibition at 1 µM [1] |
| --- | --- | --- | --- | --- |
| CS(=O)(=O)Nc1ccc(-c2ccc(C(F)(F)F)cc2)c(Cl)c1 [PT-018, N-[2-chloro-4′-(trifluoromethyl)biphenyl-4-yl]methanesulfonamide] | 10% | 10% | 50.6% |  |
| CS(=O)(=O)Nc1ccc(-c2ccccc2OC(F)(F)F)c(Cl)c1 [PT-022, N-[2-chloro-2′-(trifluoromethoxy)biphenyl-4-yl]methanesulfonamide] | 10% | 92% | 54.8% |  |
| CCS(=O)(=O)Nc1ccc(-c2ccc(Cl)c(F)c2)c(Cl)c1 [PT-026, N-(2,4′-dichloro-3′-fluorobiphenyl-4-yl)ethanesulfonamide] | 10% | 10% | 78.5% | 33.8% |
| CS(=O)(=O)Nc1ccc(-c2ccc(Oc3ccccc3)cc2)cc1Cl [PT-034, N-(3-chloro-4′-phenoxybiphenyl-4-yl)methanesulfonamide] | 10% | 10% | 69.7% | 25.9% |
| Cc1cc(NS(C)(=O)=O)ccc1-c1cccc(OC(F)(F)F)c1 [PT-040, N-[2-methyl-3′-(trifluoromethoxy)biphenyl-4-yl]methanesulfonamide] | 10% | 25% | 68.3% | 32.5% |
| O=S(=O)(Nc1ccc(-c2cccc(OC(F)(F)F)c2)c(Cl)c1)C1CC1 [PT-047, N-[2-chloro-3′-(trifluoromethoxy)biphenyl-4-yl]cyclopropanesulfonamide] | 10% | 28.5% | 77.7% | 48.6% |
| O=S(=O)(Nc1ccc(-c2ccc(F)c(Cl)c2)c(Cl)c1)C1CC1 [PT-049, N-(2,3′-dichloro-4′-fluorobiphenyl-4-yl)cyclopropanesulfonamide] | 10% | 32% | 60.1% |  |
| O=S(=O)(Nc1ccc(-c2ccc(OC(F)(F)F)cc2)c(Cl)c1)C1CC1 [PT-050, N-[2-chloro-4′-(trifluoromethoxy)biphenyl-4-yl]cyclopropanesulfonamide] | 2% | 47.5% | 61% |  |
| O=S(=O)(Nc1ccc(-c2cccc(OC(F)(F)F)c2)cc1)C1CC1 [PT-060, N-[3′-(trifluoromethoxy)biphenyl-4-yl]cyclopropanesulfonamide] | 10% | 35.5% | 54.4% |  |
| Cc1cc(N(CC(=O)O)S(C)(=O)=O)ccc1-c1ccc(Oc2ccccc2)cc1 [PT-082, N-(2-methyl-4′-phenoxybiphenyl-4-yl)-N-(methylsulfonyl)glycine] | 10% | 10% | 19.9% |  |
| Cc1cc(N(Cc2ccc(C(=O)O)cc2)S(C)(=O)=O)ccc1-c1ccc(Oc2ccccc2)cc1 [PT-108, 4-{[(2-methyl-4′-phenoxybiphenyl-4-yl)(methylsulfonyl)amino]methyl}benzoic acid] | 10% | 10% | 55.6% |  |
| Cc1cc(N(Cc2cccc(C(=O)O)c2)S(C)(=O)=O)ccc1-c1ccc(Oc2ccccc2)cc1 [PT-112, 3-{[(2-methyl-4′-phenoxybiphenyl-4-yl)(methylsulfonyl)amino]methyl}benzoic acid] | 10% | 21.5% | 35.5% |  |
